Reference: patent publication US20230017045A1, “PYRIDINE AND PYRIMIDINE CARBOXYLATE HERBICIDES AND METHODS OF USE THEREOF” (Dow AgroSciences LLC, priority 2017, published 2023)
Read-outs that look alike come from different tables or passages of the source.

Tested on: test plant species
Test: Post-emergent herbicidal activity test (greenhouse, foliar spray, visual growth reduction)
Assay type: in vivo
Conditions: post-emergence, 336 h, 140 g ai/ha
How it was run: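 Visual scoring 14 d after treatment (0 = no injury, 100 = complete control) against nontreated and solvent-blank plants gave percent growth reduction. Foliar application used a track sprayer delivering 187 L/ha to seedlings at first or second true leaf stage, grown at 23–29 °C day, ~15 h photoperiod.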

[1] = ECHCG: barnyardgrass (Echinochloa crus-galli), 14 days after application, read-out: Visual Growth Reduction (%) 14 Days After Application, ECHCG
[2] = IPOHE: ivy-leaf morning glory (Ipomoea hederacea), 14 days after application, read-out: Visual Growth Reduction (%) 14 Days After Application, IPOHE
[3] = KCHSC: kochia (Bassia scoparia), 14 days after application, read-out: Visual Growth Reduction (%) 14 Days After Application, KCHSC
[4] = ORYSA: rice (Oryza sativa), 14 days after application, read-out: Visual Growth Reduction (%) 14 Days After Application, ORYSA
[5] = SETFA: giant foxtail (Setaria faberi), 14 days after application, read-out: Visual Growth Reduction (%) 14 Days After Application, SETFA
[6] = SORVU: grain sorghum (Sorghum vulgare), 14 days after application, read-out: Visual Growth Reduction (%) 14 Days After Application, SORVU
[7] = STEME: common chickweed (Stellaria media), 14 days after application, read-out: Visual Growth Reduction (%) 14 Days After Application, STEME
[8] = TRZAS: wheat, spring (Triticum aestivum), 14 days after application, read-out: Visual Growth Reduction (%) 14 Days After Application, TRZAS
[9] = blackgrass (Alopecurus myosuroides), 14 Days After Application, read-out: Visual Growth Reduction (%) ALOMY
[10] = canada thistle (Cirsium arvense), 14 Days After Application, read-out: Visual Growth Reduction (%) CIRAR
[11] = crabgrass (Digitaria sanguinalis), 14 Days After Application, read-out: Visual Growth Reduction (%) DIGSA
[12] = lambsquarters (Chenopodium album), 14 Days After Application, read-out: Visual Growth Reduction (%) CHEAL
[13] = redroot pigweed (Amaranthus retroflexus), 14 Days After Application, read-out: Visual Growth Reduction (%) AMARE
[14] = wild oat (Avena fatua), 14 Days After Application, read-out: Visual Growth Reduction (%) AVEFA
[15] = yellow nutsedge (Cyperus esculentus), 14 Days After Application, read-out: Visual Growth Reduction (%) CYPES

Row | Structure (SMILES) | pest or weed control at 140 g/ha [1] | pest or weed control at 140 g/ha [2] | pest or weed control at 140 g/ha [3] | pest or weed control at 140 g/ha [4] | pest or weed control at 140 g/ha [5] | pest or weed control at 140 g/ha [6] | pest or weed control at 140 g/ha [7] | pest or weed control at 140 g/ha [8] | pest or weed control at 140 g/ha [9] | pest or weed control at 140 g/ha [10] | pest or weed control at 140 g/ha [11] | pest or weed control at 140 g/ha [12] | pest or weed control at 140 g/ha [13] | pest or weed control at 140 g/ha [14] | pest or weed control at 140 g/ha [15] | other results
1 | Cc1cc(C(F)(F)F)cc(Cl)c1-c1ccc(Cl)c(C(=O)O)n1 [F259, 3-Chloro-6-(2-chloro-6-methyl-4-(trifluoromethyl)phenyl)picolinic acid] | 45 to 59% | 95 to 100% | 60 to 74% | 0 to 29% | 75 to 84% | 85 to 94% | 0 to 29% | 45 to 59% | 0 to 29% | 75 to 84% | 60 to 74% | 75 to 84% | 95 to 100% | 0 to 29% | 0 to 29% | 
2 | Cc1cc(-c2ccc(Cl)c(C(=O)O)n2)ccc1C(F)(F)F [F316, 3-Chloro-6-(3-methyl-4-(trifluoromethyl)phenyl) picolinic acid] | 0 to 29% | 60 to 74% | 0 to 29% | 0 to 29% | 0 to 29% | 0 to 29% | 0 to 29% | 0 to 29% | 0 to 29% | 30 to 44% | 0 to 29% | 30 to 44% | 0 to 29% | 0 to 29% | 0 to 29% | 
3 | COC(=O)c1nc(-c2cc(F)c(C(F)(F)F)cc2Cl)c(Cl)cc1Cl [F246, Methyl 3,5-dichloro-6-(2-chloro-5-fluoro-4-(trifluoromethyl)phenyl)picolinate] | 0 to 29% | 95 to 100% | 75 to 84% | 0 to 29% | 75 to 84% | 95 to 100% | 0 to 29% | 0 to 29% | 45 to 59% | 75 to 84% | 85 to 94% | 95 to 100% | 95 to 100% | 0 to 29% | 60 to 74% | 
4 | COC(=O)c1nc(-c2ccc(N)cc2F)c(F)cc1Cl [F348, Methyl 6-(4-amino-2-fluorophenyl)-3-chloro-5-fluoropicolinate] | 0 to 29% | 0 to 29% | 0 to 29% | 0 to 29% | 0 to 29% | 0 to 29% | 0 to 29% | 0 to 29% | 0 to 29% |  | 0 to 29% | 0 to 29% | 0 to 29% | 0 to 29% | 0 to 29% | 
5 | COC(=O)c1nc(-c2ccc(Cl)c(N(C)C)c2)ccc1Cl [F149, Methyl 3-chloro-6-(4-chloro-3-(dimethylamino)phenyl)picolinate] | 0 to 29% | 30 to 44% | 75 to 84% | 0 to 29% | 0 to 29% | 0 to 29% | 0 to 29% | 0 to 29% |  |  |  |  |  |  |  | pest or weed control at 140 g/ha (ALOMY: blackgrass (Alopecurus myosuroides), 14 days after application, read-out: Visual Growth Reduction (%) 14 Days After Application, ALOMY): 0 to 29%; pest or weed control at 140 g/ha (AMARE: redroot pigweed (Amaranthus retroflexus), 14 days after application, read-out: Visual Growth Reduction (%) 14 Days After Application, AMARE): 75 to 84%; pest or weed control at 140 g/ha (AVEFA: wild oat (Avena fatua), 14 days after application, read-out: Visual Growth Reduction (%) 14 Days After Application, AVEFA): 0 to 29%; pest or weed control at 140 g/ha (CHEAL: lambsquarters (Chenopodium album), 14 days after application, read-out: Visual Growth Reduction (%) 14 Days After Application, CHEAL): 95 to 100%; pest or weed control at 140 g/ha (CIRAR: canada thistle (Cirsium arvense), 14 days after application, read-out: Visual Growth Reduction (%) 14 Days After Application, CIRAR): 60 to 74%; pest or weed control at 140 g/ha (CYPES: yellow nutsedge (Cyperus esculentus), 14 days after application, read-out: Visual Growth Reduction (%) 14 Days After Application, CYPES): 0 to 29%; pest or weed control at 140 g/ha (DIGSA: crabgrass (Digitaria sanguinalis), 14 days after application, read-out: Visual Growth Reduction (%) 14 Days After Application, DIGSA): 0 to 29%
6 | COC(=O)c1nc(-c2ccc3c(c2)C(F)(F)OC(F)(F)O3)c(Cl)cc1Cl [F202, Methyl 3,5-dichloro-6-(2,2,4,4-tetrafluoro-4H-benzo[d][1,3]dioxin-6-yl)picolinate] | 0 to 29% | 0 to 29% | 0 to 29% | 0 to 29% | 0 to 29% | 0 to 29% | 0 to 29% | 0 to 29% | 0 to 29% | 0 to 29% | 0 to 29% | 0 to 29% | 0 to 29% | 0 to 29% | 0 to 29% | 
7 | COC(=O)c1nc(-c2ccc(OC(F)(F)F)cc2Cl)c(F)cc1Cl [F210, Methyl 3-chloro-6-(2-chloro-4-(trifluoromethoxy)phenyl)-5-fluoropicolinate] | 60 to 74% | 95 to 100% | 75 to 84% | 0 to 29% | 85 to 94% | 95 to 100% | 0 to 29% | 45 to 59% | 45 to 59% | 85 to 94% | 85 to 94% | 85 to 94% | 95 to 100% | 60 to 74% | 0 to 29% | 
8 | COC(=O)c1nc(-c2ccc3cc[nH]c3c2)c(F)cc1Cl [F320, Methyl 3-chloro-5-fluoro-6-(1H-indol-6-yl)picolinate] | 0 to 29% | 60 to 74% | 0 to 29% | 0 to 29% | 0 to 29% | 0 to 29% | 0 to 29% | 0 to 29% | 0 to 29% | 30 to 44% | 0 to 29% | 60 to 74% | 0 to 29% | 0 to 29% | 0 to 29% | 
9 | COC(=O)c1nc(-c2ccc3ccsc3c2F)ccc1Cl [F260, Methyl 3-chloro-6-(7-fluorobenzo[b]thiophen-6-yl) picolinate] | 0 to 29% | 0 to 29% | 0 to 29% | 0 to 29% | 0 to 29% | 0 to 29% | 0 to 29% | 0 to 29% | 0 to 29% | 0 to 29% | 0 to 29% | 0 to 29% | 0 to 29% | 0 to 29% | 0 to 29% | 
10 | O=C(O)c1nc(-c2ccc(C(F)(F)F)c(C(F)F)c2F)c(F)cc1Cl [F294, 3-Chloro-6-(3-(difluoromethyl)-2-fluoro-4-(trifluoromethyl)phenyl)-5-fluoropicolinic acid] | 60 to 74% | 95 to 100% | 75 to 84% | 0 to 29% | 85 to 94% | 95 to 100% | 0 to 29% | 60 to 74% | 75 to 84% | 75 to 84% | 85 to 94% | 85 to 94% | 95 to 100% | 60 to 74% | 0 to 29% | 
